Columns and labels:
[1] = tested on: NCI-H1522; experiment: cells; assay type: functional, cell-based; settings: Homo sapiens;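 note: growth inhibition of NCI-H1522 cells, read out with a cell viability assay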
Description: SANGER: Inhibition of human NCI-H1522 cell growth in a cell viability assay.

[2] = tested on: TUR; experiment: cells; assay type: functional, cell-based; settings: Homo sapiens;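 note: growth inhibition of human TUR cells, read out with a cell viability assay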
Description: SANGER: Inhibition of human TUR cell growth in a cell viability assay.

[3] = tested on: NCI-H1963; experiment: cells; assay type: functional, cell-based; settings: Homo sapiens;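 note: cell growth inhibition of the human line, determined with a cell viability assay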
Description: SANGER: Inhibition of human NCI-H1963 cell growth in a cell viability assay.

[4] = tested on: CPC-N; experiment: cells; assay type: functional, cell-based; settings: Homo sapiens;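 note: growth inhibition of CPC-N cells, with a cell viability assay as the readout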
Description: SANGER: Inhibition of human CPC-N cell growth in a cell viability assay.

[5] = tested on: NCI-H1436; experiment: cells; assay type: functional, cell-based; settings: Homo sapiens;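 note: growth suppression of human NCI-H1436 cells, determined with a cell viability readout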
Description: SANGER: Inhibition of human NCI-H1436 cell growth in a cell viability assay.

[6] = tested on: KARPAS-422; experiment: cells; assay type: functional, cell-based; settings: Homo sapiens
Description: SANGER: Inhibition of human KARPAS-422 cell growth in a cell viability assay.

[7] = tested on: DMS-153; experiment: cells; assay type: functional, cell-based; settings: Homo sapiens
Description: SANGER: Inhibition of human DMS-153 cell growth in a cell viability assay.

[8] = tested on: WSU-NHL; experiment: cells; assay type: functional, cell-based; settings: Homo sapiens;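 note: growth inhibition of human WSU-NHL cells, read out with a cell viability assay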
Description: SANGER: Inhibition of human WSU-NHL cell growth in a cell viability assay.

[9] = tested on: ARH-77; experiment: cells; assay type: functional, cell-based; settings: Homo sapiens;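 note: growth inhibition of ARH-77 cells, read out by a cell viability assay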
Description: SANGER: Inhibition of human ARH-77 cell growth in a cell viability assay.

[10] = tested on: K052; experiment: cells; assay type: functional, cell-based; settings: Homo sapiens;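 note: Read-out from a cell viability assay, IC50 reflecting suppression of K052 cell growth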
Description: SANGER: Inhibition of human K052 cell growth in a cell viability assay.

[11] = tested on: EW-22; experiment: cells; assay type: functional, cell-based; settings: Homo sapiens;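 note: growth inhibition of the EW-22 cell line, measured with a cell viability readout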
Description: SANGER: Inhibition of human EW-22 cell growth in a cell viability assay.

[12] = tested on: L-540; experiment: cells; assay type: functional, cell-based; settings: Homo sapiens;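 note: growth inhibition of the human L-540 cell line, read out with a viability assay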
Description: SANGER: Inhibition of human L-540 cell growth in a cell viability assay.

[13] = tested on: JIYOYE; experiment: cells; assay type: functional, cell-based; settings: Homo sapiens
Description: SANGER: Inhibition of human JiyoyeP-2003 cell growth in a cell viability assay.

[14] = tested on: NCCIT; experiment: SANGER: Inhibition of human NCCIT cell growth in a cell viability assay.; assay type: functional, cell-based
[15] = tested on: EB-3; experiment: cells; assay type: functional, cell-based; settings: Homo sapiens;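 note: human EB-3 cells, growth inhibition read out via a cell viability assay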
Description: SANGER: Inhibition of human EB-3 cell growth in a cell viability assay.

[16] = tested on: HOS; experiment: cells; assay type: functional, cell-based; settings: Homo sapiens;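 note: growth inhibition of human HOS cells, read out with a cell viability assay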
Description: SANGER: Inhibition of human HOS cell growth in a cell viability assay.

[17] = tested on: VMRC-RCZ; experiment: cells; assay type: functional, cell-based; settings: Homo sapiens
Description: SANGER: Inhibition of human VMRC-RCZ cell growth in a cell viability assay.

[18] = tested on: BFTC-909; experiment: cells; assay type: functional, cell-based; settings: Homo sapiens
Description: SANGER: Inhibition of human BFTC-909 cell growth in a cell viability assay.

[19] = tested on: HuP-T4; experiment: cells; assay type: functional, cell-based; settings: Homo sapiens;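 note: cell viability assay measuring how much HuP-T4 cell growth is inhibited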
Description: SANGER: Inhibition of human HuP-T4 cell growth in a cell viability assay.

[20] = tested on: NCI-H2170; experiment: cells; assay type: functional, cell-based; settings: Homo sapiens;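 note: cell viability assay measuring growth inhibition of human NCI-H2170 cancer cells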
Description: SANGER: Inhibition of human NCI-H2170 cell growth in a cell viability assay.

[21] = tested on: ACHN; experiment: cells; assay type: functional, cell-based; settings: Homo sapiens;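 note: cell viability read-out used to gauge how strongly growth of human ACHN cells is suppressed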
Description: SANGER: Inhibition of human ACHN cell growth in a cell viability assay.

[22] = tested on: COLO-741; experiment: cells; assay type: functional, cell-based; settings: Homo sapiens
Description: SANGER: Inhibition of human COLO-741 cell growth in a cell viability assay.

[23] = tested on: TCC-SUP; experiment: cells; assay type: functional, cell-based; settings: Homo sapiens;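 note: growth inhibition of TCC-SUP cells, read out with a cell viability assay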
Description: SANGER: Inhibition of human TCCSUP cell growth in a cell viability assay.

[24] = tested on: HPAF-II; experiment: cells; assay type: functional, cell-based; settings: Homo sapiens;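 note: growth inhibition of HPAF-II cells, read out with a cell viability assay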
Description: SANGER: Inhibition of human HPAF-II cell growth in a cell viability assay.

[25] = tested on: CP50-MEL-B; experiment: cells; assay type: functional, cell-based; settings: Homo sapiens;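 note: growth inhibition of the human cell line, measured with a cell viability read-out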
Description: SANGER: Inhibition of human CP50-MEL-B cell growth in a cell viability assay.

[26] = tested on: A673; experiment: cells; assay type: functional, cell-based; settings: Homo sapiens;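 note: growth inhibition of human A673 cells, read out through a cell viability assay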
Description: SANGER: Inhibition of human A673 cell growth in a cell viability assay.

[27] = tested on: NCI-H1755; experiment: cells; assay type: functional, cell-based; settings: Homo sapiens;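 note: cell viability readout used to measure growth inhibition of NCI-H1755 cells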
Description: SANGER: Inhibition of human NCI-H1755 cell growth in a cell viability assay.

[28] = tested on: KYSE-270; experiment: cells; assay type: functional, cell-based; settings: Homo sapiens;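 note: cell growth inhibition measured with a viability assay in the human KYSE-270 line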
Description: SANGER: Inhibition of human KYSE-270 cell growth in a cell viability assay.

[29] = tested on: UMC-11; experiment: cells; assay type: functional, cell-based; settings: Homo sapiens;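 note: growth inhibition of UMC-11 cells, read out with a cell viability assay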
Description: SANGER: Inhibition of human UMC-11 cell growth in a cell viability assay.

[30] = tested on: UACC-893; experiment: cells; assay type: functional, cell-based; settings: Homo sapiens
Description: SANGER: Inhibition of human UACC-893 cell growth in a cell viability assay.

[31] = tested on: MKN-7; experiment: cells; assay type: functional, cell-based; settings: Homo sapiens;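 note: growth inhibition of MKN-7 cells, read out with a cell viability assay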
Description: SANGER: Inhibition of human MKN7 cell growth in a cell viability assay.

[32] = tested on: T-24; experiment: cells; assay type: functional, cell-based; settings: Homo sapiens;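 note: growth inhibition of T-24 cells, read out with a cell viability assay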
Description: SANGER: Inhibition of human T-24 cell growth in a cell viability assay.

[33] = tested on: KYSE-70 cell line; experiment: cells; assay type: functional, cell-based; settings: Homo sapiens;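 note: cell viability assay read-out, with IC50 expressing suppression of KYSE-70 cell growth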
Description: SANGER: Inhibition of human KYSE-70 cell growth in a cell viability assay.

[34] = tested on: RMG-I; experiment: cells; assay type: functional, cell-based; settings: Homo sapiens;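 note: growth inhibition of human RMG-I cells, read out with a cell viability assay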
Description: SANGER: Inhibition of human RMG-I cell growth in a cell viability assay.

[35] = tested on: KP-N-YN; experiment: cells; assay type: functional, cell-based; settings: Homo sapiens;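 note: growth inhibition of KP-N-YN cells, read out with a cell viability assay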
Description: SANGER: Inhibition of human KP-N-YN cell growth in a cell viability assay.

[36] = tested on: NCI-H661; experiment: cells; assay type: functional, cell-based; settings: Homo sapiens;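 note: cell viability assay read-out, IC50 being the concentration that inhibits growth of the cells by half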
Description: SANGER: Inhibition of human NCI-H661 cell growth in a cell viability assay.

[37] = tested on: Huh-7; experiment: cells; assay type: functional, cell-based; settings: Homo sapiens;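 note: HuH-7 cell growth inhibition, read out with a cell viability assay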
Description: SANGER: Inhibition of human HuH-7 cell growth in a cell viability assay.

[38] = tested on: KYSE-140; experiment: cells; assay type: functional, cell-based; settings: Homo sapiens;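 note: cell viability assay measuring growth inhibition in human KYSE-140 cells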
Description: SANGER: Inhibition of human KYSE-140 cell growth in a cell viability assay.

[39] = tested on: KYSE-150 cell line; experiment: cells; assay type: functional, cell-based; settings: Homo sapiens;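 note: growth inhibition of human KYSE-150 cells, read out with a cell viability assay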
Description: SANGER: Inhibition of human KYSE-150 cell growth in a cell viability assay.

[40] = tested on: OE33; experiment: cells; assay type: functional, cell-based; settings: Homo sapiens;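 note: growth inhibition of human OE33 cells, measured by a cell viability assay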
Description: SANGER: Inhibition of human OE33 cell growth in a cell viability assay.

[41] = tested on: HT-29; experiment: cells; assay type: functional, cell-based; settings: Homo sapiens;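 note: growth inhibition of human HT-29 cells, read out by a cell viability assay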
Description: SANGER: Inhibition of human HT-29 cell growth in a cell viability assay.

[42] = tested on: PA-1; experiment: cells; assay type: functional, cell-based; settings: Homo sapiens;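 note: IC50 for suppression of PA-1 cell proliferation, determined with a cell viability read-out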
Description: SANGER: Inhibition of human PA-1 cell growth in a cell viability assay.

[43] = tested on: UO-31; experiment: cells; assay type: functional, cell-based; settings: Homo sapiens
Description: SANGER: Inhibition of human U031 cell growth in a cell viability assay.

[44] = tested on: COR-L105; experiment: cells; assay type: functional, cell-based; settings: Homo sapiens
Description: SANGER: Inhibition of human COR-L105 cell growth in a cell viability assay.

[45] = tested on: SJRH30; experiment: cells; assay type: functional, cell-based; settings: Homo sapiens;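 note: growth inhibition of human SJRH30 cells, read out with a cell viability assay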
Description: SANGER: Inhibition of human SJRH30 cell growth in a cell viability assay.

[46] = tested on: SW13; experiment: cells; assay type: functional, cell-based; settings: Homo sapiens;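 note: IC50 is inhibition of SW13 cell growth, read out with a cell viability assay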
Description: SANGER: Inhibition of human SW13 cell growth in a cell viability assay.

[47] = tested on: U-118-MG; experiment: cells; assay type: functional, cell-based; settings: Homo sapiens
Description: SANGER: Inhibition of human U-118-MG cell growth in a cell viability assay.

[48] = tested on: IGR-1; experiment: cells; assay type: functional, cell-based; settings: Homo sapiens;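 note: growth inhibition of human IGR-1 cells, read out with a cell viability assay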
Description: SANGER: Inhibition of human IGR-1 cell growth in a cell viability assay.

[49] = tested on: DMS-273; experiment: cells; assay type: functional, cell-based; settings: Homo sapiens
Description: SANGER: Inhibition of human DMS-273 cell growth in a cell viability assay.

[50] = tested on: KOSC-2; experiment: cells; assay type: functional, cell-based; settings: Homo sapiens;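 note: growth inhibition of KOSC-2 cells, read out by a cell viability assay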
Description: SANGER: Inhibition of human KOSC-2 cell growth in a cell viability assay.

[51] = tested on: HCC 2998; experiment: cells; assay type: functional, cell-based; settings: Homo sapiens;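 note: growth inhibition of human HCC2998 cells, measured with a cell viability read-out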
Description: SANGER: Inhibition of human HCC2998 cell growth in a cell viability assay.

[52] = tested on: G-402; experiment: cells; assay type: functional, cell-based; settings: Homo sapiens
Description: SANGER: Inhibition of human G-402 cell growth in a cell viability assay.

[53] = tested on: CAL-54; experiment: cells; assay type: functional, cell-based; settings: Homo sapiens;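 note: growth inhibition of CAL-54 cells, read out by a viability measurement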
Description: SANGER: Inhibition of human CAL-54 cell growth in a cell viability assay.

[54] = tested on: CAL-51; experiment: cells; assay type: functional, cell-based; settings: Homo sapiens;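 note: human CAL-51 cell line, growth inhibition read out via a cell viability assay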
Description: SANGER: Inhibition of human CAL-51 cell growth in a cell viability assay.

[55] = tested on: KU-19-19; experiment: cells; assay type: functional, cell-based; settings: Homo sapiens
Description: SANGER: Inhibition of human KU-19-19 cell growth in a cell viability assay.

[56] = tested on: CHP-212; experiment: cells; assay type: functional, cell-based; settings: Homo sapiens
Description: SANGER: Inhibition of human CHP-212 cell growth in a cell viability assay.

[57] = tested on: NCI-H1792; experiment: cells; assay type: functional, cell-based; settings: Homo sapiens;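 note: growth inhibition of human NCI-H1792 cells, read out as cell viability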
Description: SANGER: Inhibition of human NCI-H1792 cell growth in a cell viability assay.

[58] = tested on: HEC-1; experiment: cells; assay type: functional, cell-based; settings: Homo sapiens;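 note: growth inhibition of the cell line, read out with a cell viability assay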
Description: SANGER: Inhibition of human HEC-1 cell growth in a cell viability assay.

[59] = tested on: NCI-H2030; experiment: cells; assay type: functional, cell-based; settings: Homo sapiens;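 note: growth inhibition of human NCI-H2030 cells, read out by a cell viability assay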
Description: SANGER: Inhibition of human NCI-H2030 cell growth in a cell viability assay.

[60] = tested on: CAL-12T; experiment: cells; assay type: functional, cell-based, Homo sapiens; settings: Homo sapiens, CAL-12T;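 note: growth inhibition of human CAL-12T cells, read out with a cell viability assay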
Description: SANGER: Inhibition of human CAL-12T cell growth in a cell viability assay.

[61] = tested on: NCI-H2228; experiment: cells; assay type: functional, cell-based; settings: Homo sapiens;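 note: growth inhibition of human NCI-H2228 cells, read out by a cell viability assay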
Description: SANGER: Inhibition of human NCI-H2228 cell growth in a cell viability assay.

[62] = tested on: BFTC-905; experiment: cells; assay type: functional, cell-based; settings: Homo sapiens
Description: SANGER: Inhibition of human BFTC-905 cell growth in a cell viability assay.

[63] = tested on: PANC-03-27; experiment: cells; assay type: functional, cell-based; settings: Homo sapiens
Description: SANGER: Inhibition of human PANC-03-27 cell growth in a cell viability assay.

[64] = tested on: MHH-ES-1; experiment: cells; assay type: functional, cell-based; settings: Homo sapiens
Description: SANGER: Inhibition of human MHH-ES-1 cell growth in a cell viability assay.

[65] = tested on: Calu-3; experiment: cells; assay type: functional, cell-based; settings: Homo sapiens;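 note: growth inhibition of human Calu-3 cells, determined with a cell viability assay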
Description: SANGER: Inhibition of human Calu-3 cell growth in a cell viability assay.

**Q.** What does the source list for `Cc1[nH]c(/C=C2\C(=O)Nc3ccc(S(=O)(=O)Cc4c(Cl)cccc4Cl)cc32)c(C)c1C(=O)N1CCC[C@@H]1CN1CCCC1` [PHA-665752]?
**A.** IC50 [1]: > 2000 nM; IC50 [2]: > 2000 nM; IC50 [3]: > 2000 nM; IC50 [4]: > 2000 nM; IC50 [5]: > 2000 nM; IC50 [6]: > 2000 nM; IC50 [7]: > 2000 nM; IC50 [8]: > 2000 nM; IC50 [9]: > 2000 nM; IC50 [10]: > 2000 nM; IC50 [11]: > 2000 nM; IC50 [12]: > 2000 nM; IC50 [13]: > 2000 nM; IC50 [14]: > 2000 nM; IC50 [15]: > 2000 nM

**Q.** `CCCS(=O)(=O)Nc1ccc(F)c(C(=O)c2c[nH]c3ncc(Cl)cc23)c1F` [PLX-4720] was tested. Which IC50 [16] did it give?
**A.** > 10000 nM

**Q.** And the IC50 [17]?
**A.** > 10000 nM

**Q.** What about the IC50 [18] of the same compound?
**A.** > 10000 nM

**Q.** What about the IC50 [19] of the same compound?
**A.** > 10000 nM

**Q.** What about the IC50 [20] of the same compound?
**A.** > 10000 nM

**Q.** What about the IC50 [21] of the same compound?
**A.** > 10000 nM

**Q.** What about the IC50 [22] of the same compound?
**A.** 8.02 µM

**Q.** What about the IC50 [23] of the same compound?
**A.** > 10000 nM

**Q.** What about the IC50 [24] of the same compound?
**A.** > 10000 nM

**Q.** What about the IC50 [25] of the same compound?
**A.** 298 nM

**Q.** What about the IC50 [26] of the same compound?
**A.** > 10000 nM

**Q.** What about the IC50 [27] of the same compound?
**A.** > 10000 nM

**Q.** And the IC50 [28]?
**A.** > 10000 nM

**Q.** What about the IC50 [29] of the same compound?
**A.** > 10000 nM

**Q.** And the IC50 [30]?
**A.** > 10000 nM

**Q.** And the IC50 [31]?
**A.** > 10000 nM

**Q.** What about the IC50 [32] of the same compound?
**A.** > 10000 nM

**Q.** What about the IC50 [33] of the same compound?
**A.** > 10000 nM

**Q.** And the IC50 [34]?
**A.** > 10 µM

**Q.** And the IC50 [35]?
**A.** > 10000 nM

**Q.** What about the IC50 [36] of the same compound?
**A.** > 10000 nM

**Q.** What about the IC50 [37] of the same compound?
**A.** > 10000 nM

**Q.** What about the IC50 [38] of the same compound?
**A.** > 10000 nM

**Q.** What about the IC50 [39] of the same compound?
**A.** > 10000 nM

**Q.** And the IC50 [40]?
**A.** > 10000 nM

**Q.** And the IC50 [41]?
**A.** > 10000 nM

**Q.** And the IC50 [42]?
**A.** 2730 nM

**Q.** What about the IC50 [43] of the same compound?
**A.** > 10000 nM

**Q.** And the IC50 [11]?
**A.** > 10000 nM

**Q.** What about the IC50 [44] of the same compound?
**A.** > 10000 nM

**Q.** What about the IC50 [45] of the same compound?
**A.** > 10000 nM

**Q.** What about the IC50 [46] of the same compound?
**A.** > 10000 nM

**Q.** And the IC50 [47]?
**A.** > 10000 nM

**Q.** What about the IC50 [48] of the same compound?
**A.** > 10000 nM

**Q.** And the IC50 [49]?
**A.** > 10000 nM

**Q.** And the IC50 [50]?
**A.** > 10000 nM

**Q.** And the IC50 [51]?
**A.** > 10000 nM

**Q.** And the IC50 [52]?
**A.** > 10000 nM

**Q.** And the IC50 [53]?
**A.** > 10000 nM

**Q.** What about the IC50 [54] of the same compound?
**A.** > 10000 nM

**Q.** What about the IC50 [55] of the same compound?
**A.** > 10000 nM

**Q.** What about the IC50 [56] of the same compound?
**A.** > 10000 nM

**Q.** And the IC50 [57]?
**A.** > 10000 nM

**Q.** And the IC50 [58]?
**A.** > 10000 nM

**Q.** What about the IC50 [59] of the same compound?
**A.** > 10000 nM

**Q.** What about the IC50 [60] of the same compound?
**A.** > 10000 nM

**Q.** What about the IC50 [61] of the same compound?
**A.** > 10000 nM

**Q.** What about the IC50 [62] of the same compound?
**A.** > 10000 nM

**Q.** What about the IC50 [63] of the same compound?
**A.** > 10000 nM

**Q.** What about the IC50 [64] of the same compound?
**A.** > 10000 nM

**Q.** And the IC50 [65]?
**A.** > 10 µM

**Q.** Which results are given for `CC[C@]1(O)C[C@@H]2CN(CCc3c([nH]c4ccccc34)[C@@](C(=O)OC)(c3cc4c(cc3OC)N(C)[C@H]3[C@@](O)(C(=O)OC)[C@H](OC(C)=O)[C@]5(CC)C=CCN6CC[C@]43[C@@H]65)C2)C1` [VINBLASTINE]?
**A.** IC50 [16]: 6.25 nM; IC50 [17]: 19.3 nM; IC50 [18]: 7.53 nM; IC50 [19]: 43.2 nM; IC50 [20]: 33.4 nM; IC50 [21]: 59 nM; IC50 [22]: 0.00214 µM; IC50 [23]: 23.6 nM; IC50 [24]: 40 nM; IC50 [25]: 13.1 nM; IC50 [26]: 6.88 nM; IC50 [27]: 19.4 nM; IC50 [28]: 9.63 nM; IC50 [29]: 76.2 nM; IC50 [30]: 98.3 nM; IC50 [31]: 76.7 nM; IC50 [32]: 5.1 nM; IC50 [33]: 48.4 nM; IC50 [34]: > 0.1 µM; IC50 [35]: 46.4 nM; IC50 [36]: 8.05 nM; IC50 [37]: 87.7 nM; IC50 [38]: 44.9 nM; IC50 [39]: 46.5 nM; IC50 [40]: 28.6 nM; IC50 [41]: 45.9 nM; IC50 [42]: 8.09 nM; IC50 [43]: 13.9 nM; IC50 [11]: 29.3 nM; IC50 [44]: 65.7 nM; IC50 [45]: 59.4 nM; IC50 [46]: 5.49 nM; IC50 [47]: 45.2 nM; IC50 [48]: 2.08 nM; IC50 [49]: 3.4 nM; IC50 [50]: 0.698 nM; IC50 [51]: 19.8 nM; IC50 [52]: 17.6 nM; IC50 [53]: 60.6 nM; IC50 [54]: 16.4 nM; IC50 [55]: 43.7 nM; IC50 [56]: 3.55 nM; IC50 [57]: 4.39 nM; IC50 [58]: 11.4 nM; IC50 [59]: 27.7 nM; IC50 [60]: 56 nM; IC50 [61]: 41.1 nM; IC50 [62]: 3.77 nM; IC50 [63]: 5.47 nM; IC50 [64]: 5.13 nM; IC50 [65]: > 0.1 µM
